The subject of the data set is GAPDH mRNA. Kind of data set: RNAi activity of GAPDH-targeting siRNA, expression of mRNA of GAPDH, HPRT1 internal control (Test Example 5). The format is cell-based, human. Here is the method: The RNAi activity of a GAPDH-targeting siRNA having 8-Br-dA at the 5′ end of the antisense strand was evaluated by measuring an inhibitory effect on the expression of mRNA of GAPDH as described below. In a culture dish (Multidish 24 wells, Cat. No. 142475, manufactured by Nunc, Inc.), human cervical cancer-derived cell line Hela cells (CCL-2, purchased from ATCC) were suspended in RPMI medium (Invitrogen Life Technologies, 11875093) containing 10% fetal bovine serum, and 500 μL of the resulting cell suspension was inoculated into each well to give 50000 cells/well. […]
The cells after introduction of the siRNA were cultured under the conditions of 37° C. and 5% CO2 for 24 hours. […] NM_000942) were subjected to a PCR reaction by the Taqman probe method using ABI 7900HT Fast (ABI), and the levels of amplified mRNAs of the respective genes were measured. […] Further, in the negative control group, the level of the mRNA of GAPDH and the level of the amplified mRNA of PPIB were measured in the same manner, respectively, and a semi-quantitative level of the mRNA of GAPDH was calculated using the level of the amplified mRNA of PPIB as an internal control.
The activity of the GAPDDH-targeting siRNA obtained in Example 6 was evaluated by measuring an inhibitory effect on the expression of mRNA of GAPDH in the same manner as in Test Example 4. […]

Regarding “1096-5-F-dU: GAPDH-targeting siRNA, antisense XUACCAGGAAAUGAGCUUGAC, X = 5-fluoro-2′-deoxyuridine monophosphate”, the “level of target mRNA” value by setting is: (relative ratio with negative control group taken as 1, concentration 1 pM) 0.183; (relative ratio with negative control group taken as 1, concentration 10 pM) 0.059.

The values are drawn from US10342819B2, “Oligonucleotide having non-natural nucleotide at 5′-terminal thereof” (Kyowa Hakko Kirin Co., Ltd., priority 2014, dated 2019).
